# Experimental data reported in the NIST ThermoML archive (doi:10.1016/j.fluid.2011.06.012).
# Numbers after ± are expanded uncertainties.
# Columns and labels:
# [1] = Molar enthalpy of transition or fusion; conditions: DSC
smiles,measurement,setting,value
CCCC[N+]1(C)CCCC1.N#C[S-] [1-butyl-1-methylpyrrolidinium thiocyanate],Molar enthalpy of transition or fusion,[1]; Crystal 1,2.06 ± 0.18 kJ/mol
same,Molar enthalpy of transition or fusion,[1]; Crystal 2,8.68 ± 0.27 kJ/mol
same,viscosity,"298.15 K, 101.33 kPa, Liquid, Cone and plate viscometry",109.46 ± 2.2 mPa·s
same,mass density,"298.15 K, 101.33 kPa, Liquid, Vibrating tube method",1024.77 ± 2.2 kg/m3
same,Normal melting temperature,"Crystal 1, DTA",22.2 ± 0.9 °C
same,Triple point temperature,"Crystal 2, DTA",245.3 ± 0.4 K
